Source: patent publication US20110130464A1, “Combination Agent for Improving Carcass Performance in Finishing Pigs” (IGENE BIOTECHNOLOGY, INC., priority 2008, published 2011)
Where a name gives a salt, the structure may show the parent alone.

Assays:
finishing pigs [1] = assay: Growth performance and carcass characteristics of finishing pigs fed astaxanthin with or without Paylean; type: in vivo; details: for ADFI (Average Daily Feed Intake) / ADG (Average Daily Gain) / F/G (Pounds of feed to gain one pound of weight) / G/F (Reciprocal of F/G): 26 d
Protocol: Procedures used in the experiment were approved by the Kansas State University (KSU) Animal Care and Use Committee. The project was conducted at the KSU Swine Teaching and Research Farm. Pigs were housed in an environmentally-regulated finishing building with pens over a totally slatted floor that provided approximately 8 ft^2 per pig. Each pen was equipped with a dry, self-feeder and one nipple waterer, providing ad libitum access to feed and water. The facility was a mechanically-ventilated room with a pull-plug, manure storage pit.
A total of 144 finishing pigs from a single group (72 barrows and 72 gilts) were utilized for the experiments. Pigs were blocked by weight and gender, and allotted to one of 9 dietary treatments for an average period of 27 days pre-harvest. Each pen served as an experimental unit, with 2 pigs/pen and 8 replications to provide 16 pigs per treatment.
Experimental diets were provided in meal form and astaxanthin (0, 5, 7.5 and 10 ppm) was added to the control diet at the expense of corn starch to achieve the dietary treatments (Table 1). Paylean® was added to the diets indicated to contain 10 ppm.
Pigs were weighed on day 0, 7, 14, 21, and ˜27 to calculate average daily gain, average daily feed intake, and feed efficiency. Upon completion of the collection of growth performance data, all pigs were euthanized and processed for the collection of standard carcass measurements (dressing percentage, 10th rib backfat depth, loin muscle area, etc.).
Data were analyzed as a randomized complete block design using the PROC MIXED procedure of SAS with pen as the experimental unit. Linear and quadratic polynomial contrasts were used to determine the effect of increasing astaxanthin, with and without addition of Paylean®.
The source of natural astaxanthin used in this example was the yeast Phaffia rhodozyma which is commercially available under the trade name Aquasta® containing 10000 ppm astaxanthin, by weight.

pigs = details: Trapp et al. 2002; cited from earlier work
finishing pigs [2] = details: Yang et al., cited from earlier work
[3] = 10 ppm Paylean, 0 ppm astaxanthin
[4] = 5 ppm astaxanthin in diet, without Paylean
[5] = 7.5 ppm astaxanthin in diet, without Paylean
[6] = 10 ppm astaxanthin in diet, without Paylean

## CC(CCc1ccc(O)cc1)NCC(O)c1ccc(O)cc1 (stereo not drawn) [Paylean®, ractopamine hydrochloride, reference compound]
Finishing pigs [1]; 10 ppm Paylean alone
  LEA (loin eye areas), average: 8.29 square inches
Finishing pigs [1]; 10 ppm Paylean alone vs control diet without astaxanthin or Paylean
  increase of LEA over control pigs: 1.03 square inches
Finishing pigs [1]; [3]
  BF-10th rib (Back Fat): 0.81 in.
  BF-avg. (Back Fat): 1.06 in.
  Body weight, Final: 297.1 lb
  Carcass Yield: 72.0%
  HCW (Hot Carcass Weight): 213.9 lb
  LEA-10th rib (Loin Eye Area): 8.29 in^2
  PFFL (Percent Fat Free Lean, SFFL/HCW): 53.8%
  SFFL (Standard Fat Free Lean): 115.2 lb
  ADFI (Average Daily Feed Intake): 8.05 lb
  ADG (Average Daily Gain): 2.83 lb
  F/G (Pounds of feed to gain one pound of weight): 2.86
  G/F (Reciprocal of F/G): 0.35
Finishing pigs [1]; 10 ppm Paylean, control 108.4 pounds
  SFFL (standard fat free lean): 115.2 pounds
pigs
  hot carcass weight, dressing percent and loin eye area: increase

## CC1=C(/C=C/C(C)=C/C=C/C(C)=C/C=C/C=C(C)/C=C/C=C(C)/C=C/C2=C(C)C(=O)C(O)CC2(C)C)C(C)(C)CC(O)C1=O (stereo not drawn) [astaxanthin, 3,3′-dihydroxy-β,β-carotene-4,4′ dione]
Finishing pigs [1]; [4]
  BF-10th rib (Back Fat): 0.84 in.
  BF-avg. (Back Fat): 1.12 in.
  Body weight, Final: 287.6 lb
  Carcass Yield: 70.4%
  HCW (Hot Carcass Weight): 202.6 lb
  LEA-10th rib (Loin Eye Area): 7.55 in^2
  PFFL (Percent Fat Free Lean, SFFL/HCW): 52.8%
  SFFL (Standard Fat Free Lean): 107.1 lb
  ADFI (Average Daily Feed Intake): 8.06 lb
  ADG (Average Daily Gain): 2.34 lb
  F/G (Pounds of feed to gain one pound of weight): 3.44
  G/F (Reciprocal of F/G): 0.29
Finishing pigs [1]; 7.5 ppm astaxanthin alone
  LEA (loin eye areas), average: 7.36 square inches
Finishing pigs [1]; 7.5 ppm astaxanthin alone vs diets without astaxanthin
  increase of LEA over control pigs: 0.10 square inches
Finishing pigs [1]; [5]
  BF-10th rib (Back Fat): 0.81 in.
  BF-avg. (Back Fat): 1.02 in.
  Body weight, Final: 287.4 lb
  Carcass Yield: 71.5%
  HCW (Hot Carcass Weight): 203.4 lb
  LEA-10th rib (Loin Eye Area): 7.36 in^2
  PFFL (Percent Fat Free Lean, SFFL/HCW): 52.9%
  SFFL (Standard Fat Free Lean): 107.6 lb
  ADFI (Average Daily Feed Intake): 8.03 lb
  ADG (Average Daily Gain): 2.45 lb
  F/G (Pounds of feed to gain one pound of weight): 3.28
  G/F (Reciprocal of F/G): 0.31
Finishing pigs [1]; [6]
  BF-10th rib (Back Fat): 0.77 in.
  BF-avg. (Back Fat): 1.04 in.
  Body weight, Final: 286.2 lb
  Carcass Yield: 70.8%
  HCW (Hot Carcass Weight): 202.5 lb
  LEA-10th rib (Loin Eye Area): 7.53 in^2
  PFFL (Percent Fat Free Lean, SFFL/HCW): 53.7%
  SFFL (Standard Fat Free Lean): 108.6 lb
  ADFI (Average Daily Feed Intake): 8.01 lb
  ADG (Average Daily Gain): 2.41 lb
  F/G (Pounds of feed to gain one pound of weight): 3.35
  G/F (Reciprocal of F/G): 0.30
Finishing pigs [1]; astaxanthin alone
  SFFL versus pigs fed a diet without astaxanthin: no statistical difference
Finishing pigs [2]; 0, 1.5 and 3.0 ppm astaxanthin in diet of finishing pigs
  production performance: no significant effect
Finishing pigs [2]; increasing dietary astaxanthin level (0, 1.5, 3.0 ppm)
  dressing percentage, back fat thickness and loin muscle area: linear effect
